Results taken from PMC11444200, “In Vitro Evaluation of Antipseudomonal Activity and Safety Profile of Peptidomimetic Furin Inhibitors” (Biomedicines, 2024).

Tests used:
[1] = system: human airway Calu-3 cells; settings: cited from earlier work
[2] = system: primary human hepatocytes (PHH); assay: CCK-8 cytotoxicity assay in primary human hepatocytes; assay type: cell-based; settings: 50 µM and 100 µM, 24 h
Procedure: PHHs were purchased from Primacyt Cell Culture Technology GmbH (Schwerin, Germany). Hepatocytes were thawed using hepatocyte recovery medium (Primacyt, Schwerin, Germany) and cells were centrifuged (10 min, 100× g, 20 °C) to remove supernatants. Cells were incubated with 5% FBS-containing plating medium for 6 h, then with FBS-free maintenance medium at 37 °C with 5% CO2 (both media were obtained from Primacyt, Schwerin, Germany) on Matrigel-coated membrane inserts (Costar Transwell-COL PTFE permeable supports, 6.5 mm inserts, 0.4 µm pore size, 24-well plate, Corning Incorporated, Kennebunk, ME, USA) for the CCK-8 and Amplex Red procedures. Maintenance medium without FBS was replaced every 24 h and the cells were incubated.
The possible cytotoxic effects of the inhibitors MI-1851 and MI-2415 (structures provided in Figure 1) in different concentrations on IPEC-J2 and those of inhibitor MI-2415 on PHHs were assessed for 24 h by performing the CCK-8 assay (Dojindo Molecular Technologies, Rockville, MD, USA). […] Following three times washing of the wells with PBS, 10 µL CCK-8 reagent mixed with 100 µL fresh Williams’ Medium E was added and the absorbance values were measured at 450 nm using the SpectraMax iD3 microplate reader (Molecular Devices, San José, CA, USA) after 2 h incubation. […]

Structure (SMILES)	non-cytotoxic concentration [1]	cell death in PHHs [2]
CC(C)(C)[C@H](NC(=O)[C@H](CCONC(=N)N)NC(=O)Cc1ccc(CNC(=N)N)cc1)C(=O)N[C@@H](CCONC(=N)N)C(=O)NCc1ccc(C(=N)N)cc1 [MI-1851]	up to 50 µM	
CC(C)(C)[C@H](NC(=O)[C@H](CCONC(=N)N)NC(=O)Cc1ccc(CNC(=N)N)cc1)C(=O)N[C@@H](CCONC(=N)N)C(=O)NCc1ccc2c(c1)CN=C2N [MI-2415]		did not lead to significant cell death
